Data: ChEMBL document CHEMBL4393661, “PRODRUGS FOR NITROREDUCTASE BASED CANCER THERAPY- 2: Novel amide/Ntr combinations targeting PC3 cancer cells” (Eur J Med Chem, 2019)

target: T1, Putative nitroreductase (Staphylococcus saprophyticus subsp. saprophyticus (strain ATCC 15305 / DSM20229 / NCIMB 8711 / NCTC 7292 / S-41)) (UniProt Q4A0P1); assay: Substrate activity at Staphylococcus saprophyticus nitroreductase assessed as ratio of Kcat/Km up to 80 mM using NADH as cofactor relative to CB1954/NfsB
T1 sequence (whole entry): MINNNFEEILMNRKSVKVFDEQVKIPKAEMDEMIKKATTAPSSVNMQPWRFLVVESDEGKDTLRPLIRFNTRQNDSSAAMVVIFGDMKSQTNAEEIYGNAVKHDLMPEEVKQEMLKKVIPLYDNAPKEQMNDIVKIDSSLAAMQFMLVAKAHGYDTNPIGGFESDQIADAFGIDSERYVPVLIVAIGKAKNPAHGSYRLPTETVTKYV

Going from `CC(=O)Nc1cc([N+](=O)[O-])cc([N+](=O)[O-])c1` to `CCN(C(C)=O)c1cc([N+](=O)[O-])cc([N+](=O)[O-])c1`, the fold change (FC) rises from 17.6 to 20.9.

Going from `NC(=O)c1cc(N(CCCl)CCCl)c([N+](=O)[O-])cc1[N+](=O)[O-]` to `NC(=O)c1cc(N2CC2)c([N+](=O)[O-])cc1[N+](=O)[O-]`, the fold change (FC) falls from 1.67 to 0.38.
